Drawing on EP1227795B1, “LIPID COMPLEX OF ALKYCYCLINES” (priority 1999, dated 2001), this text covers water solubility for one substance.

This series in a line: water solubility of the alkycycline. It is filed as physicochemical. How it is done: The alkycycline of formula Ia as defined above is quite water insoluble (less than 0.1 mg/ml). This makes it difficult to be formulated as a sterile, storage stable, dosage form. Additionally, the alkycycline is unstable: • after twelve months at 4°C the decomposition of the bulk product is about from 4 to 6%. This percentage of decomposition is absolutely not acceptable for a pharmaceutical product.

Take “4-demethoxy-3'-deamino-3'-aziridinyl-4'-methansulfonyl daunorubicin [Ia]”: the water solubility entry is on record as “less than 0.1 mg/ml”.
